The values that follow come from patent publication US20240376094A2, “SELECTIVE BCL-XL PROTAC COMPOUNDS AND METHODS OF USE” (Les Laboratoires Servier, priority 2021, published 2024).

A word on the IC50: it is the concentration at which inhibition is half-maximal. Low values mean inhibition by little substance, high ones a need for much substance. A word on the GI50: it is the concentration at which growth is held to half of that of the control.

Where only a bound is given, the exact number is not on record here.

Common to all, as to format: cell-based
The target of one assay is T1, HiBiT-tagged BCL-xL (Homo sapiens, UniProt Q07817).
T1 construct: expressed in transfected cells; host or cells: NCI-H1650 (ATCC No. CRL-5883), engineered HiBiT cell line
T1 sequence (Q07817 whole entry): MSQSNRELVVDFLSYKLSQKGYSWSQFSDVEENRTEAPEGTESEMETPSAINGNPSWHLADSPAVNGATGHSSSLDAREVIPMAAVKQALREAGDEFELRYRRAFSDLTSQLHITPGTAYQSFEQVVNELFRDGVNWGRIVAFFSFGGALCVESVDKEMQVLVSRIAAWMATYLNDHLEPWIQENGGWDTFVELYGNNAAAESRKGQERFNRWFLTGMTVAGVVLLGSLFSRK
Description: NCI-H1650 BCL-xL protein levels, Nano-Glo HiBiT Lytic Detection. Particulars: NCI-H1650 expressing HiBiT-tagged BCL-xL, overnight incubation, read-out: Bcl-xl HIBIT NCIH1650 DC50. The method, boiled down:
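HiBiT luminescence after cell lysis with LgBiT/furimazine reagent reported BCL-xL levels, expressed relative to untreated wells and fitted with a four-parameter logistic equation. Engineered NCI-H1650 cells were exposed overnight at 37° C to compound at final 0.508 nM-10 μM (10 points, triplicate plates).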
Background: The HiBiT peptide binds its large partner to form an active luciferase.

The test system of a further assay is MOLT-4 cells. As to the kind of experiment: MOLT-4 cell viability, CTG assay. Particulars: Homo sapiens, MOLT-4, 48 h. The method, boiled down: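 Viability read as total ATP luminescence (CTG) after 48 h compound treatment, 11 points at 5-fold spacing in triplicate, cells in RPMI 1640/10% FBS. IC50 is the concentration halving signal relative to control, four-parameter fit, averaged over at least 2 experiments.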

The next assay has as its target T2, Bcl-xL (Homo sapiens, UniProt Q07817).
T2 construct: Measured levels of Bcl-xL protein of HCT116 cells treated with the tested compounds; host or cells: HCT116
Description: HCT116 Bcl-xL degradation, capillary-based immunoassay (WES). The following applies: HCT116, 24 h, 9-point serial dilution. The method, boiled down: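 Bcl-xL protein level by capillary WES immunoassay in HCT116 lysates, as % of untreated after cofilin normalization. Compound exposure was 24 h at 10 and 100 nM and/or a 9-point series, in quadruplicate. Four-parameter fitting gave the DC50.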

Assay [1] concerns EBC-1 lung cancer cell line. Description: EBC-1 cell proliferation, CellTiter-Glo assay. Particulars: Homo sapiens, 120 h; Ebc-1 cell viability, CTG assay, 5 days of treatment; read-out: CTG 5 day Ebc1 GI50. The method, boiled down:
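CellTiter-Glo read-out after 5-day compound treatment, normalised to untreated cells, with GI50 derived by four-parameter logistic regression. Ten concentrations spanning 0.508 nM–10 μM were added to 1000 EBC-1 cells per well the day after seeding. Assays required at least one cell doubling versus Day 0.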
In general terms: In ATP-based viability assays light output follows the ATP content of the culture.

T2 sequence (Q07817 whole entry): as above

On to `Cc1ncsc1-c1ccc([C@H](C)NC(=O)[C@@H]2C[C@@H](O)CN2C(=O)[C@@H](NC(=O)COCCCCCCCCCCCCCN(C)CCOC23CC4(C)CC(C)(CC(Cn5ncc(-c6ccc(N7CCCc8c7nnc(Nc7nc9ccccc9s7)c8C)nc6C(=O)O)c5C)(C4)C2)C3)C(C)(C)C)cc1` [Example 111, 6-[3-(1,3-benzothiazol-2-ylamino)-4-methyl-6,7-dihydro-5H-pyrido[2,3-c]pyridazin-8-yl]-3-[1-[[3-[2-[13-[2-[[(1S)-1-[(2S,4R)-4-hydroxy-2-[[(1S)-1-[4-(4-methylthiazol-5-yl)phenyl]ethyl]carbamoyl]pyrrolidine-1-carbonyl]-2,2-dimethyl-propyl]amino]-2-oxo-ethoxy]tridecyl-methyl-amino]ethoxy]-5,7-dimethyl-1-adamantyl]methyl]-5-methyl-pyrazol-4-yl]pyridine-2-carboxylic acid], for which the figures for the DC50 at HiBiT-tagged BCL-xL and at Bcl-xL were 0.5 nM and 0.4 nM, respectively. This compound also yielded an IC50 in the assay on MOLT-4 cells of 2.62 nM. In assay [1], the 50% growth inhibitory concentration (GI50) was found to be 41 nM.
Taken in the same sequence, the figures for `Cc1ncsc1-c1ccc([C@H](C)NC(=O)[C@@H]2C[C@@H](O)CN2C(=O)[C@@H](NC(=O)CCCCCCCCCCCCCN(C)CCOC23CC4(C)CC(C)(CC(Cn5ncc(-c6ccc(N7CCCc8c7nnc(Nc7nc9ccccc9s7)c8C)nc6C(N)=O)c5C)(C4)C2)C3)C(C)(C)C)cc1` [Example 154, 6-[3-(1,3-benzothiazol-2-ylamino)-4-methyl-6,7-dihydro-5H-pyrido[2,3-c]pyridazin-8-yl]-3-[1-[[3-[2-[[14-[[(1S)-1-[(2S,4R)-4-hydroxy-2-[[(1S)-1-[4-(4-methylthiazol-5-yl)phenyl]ethyl]carbamoyl]pyrrolidine-1-carbonyl]-2,2-dimethyl-propyl]amino]-14-oxo-tetradecyl]-methyl-amino]ethoxy]-5,7-dimethyl-1-adamantyl]methyl]-5-methyl-pyrazol-4-yl]pyridine-2-carboxamide] were > 1670 nM, 10.3 nM, 6.59 nM and 222 nM.
With `Cc1ncsc1-c1ccc(CNC(=O)[C@@H]2C[C@@H](O)CN2C(=O)[C@@H](NC(=O)C2(F)CC2)C(C)(C)C)c(OCCCCCCCCCCN(C)CCOC23CC4(C)CC(C)(CC(Cn5ncc(-c6ccc(N7CCCc8c7nnc(Nc7nc9ccccc9s7)c8C)nc6C(=O)O)c5C)(C4)C2)C3)c1` [Example 73, 6-[3-(1,3-benzothiazol-2-ylamino)-4-methyl-6,7-dihydro-5H-pyrido[2,3-c]pyridazin-8-yl]-3-[1-[[3-[2-[10-[2-[[[(2S,4R)-1-[(2S)-2-[(1-fluorocyclopropanecarbonyl)amino]-3,3-dimethyl-butanoyl]-4-hydroxy-pyrrolidine-2-carbonyl]amino]methyl]-5-(4-methylthiazol-5-yl)phenoxy]decyl-methyl-amino]ethoxy]-5,7-dimethyl-1-adamantyl]methyl]-5-methyl-pyrazol-4-yl]pyridine-2-carboxylic acid], the DC50 on HiBiT-tagged BCL-xL turned out to be 13 nM; at Bcl-xL, 7.69 nM. In the assay with MOLT-4 cells, this compound displayed an IC50 of 24 nM. In addition, the concentration for 50% growth inhibition (GI50) in assay [1] was 186 nM.
For `Cc1ncsc1-c1ccc([C@H](C)NC(=O)[C@@H]2C[C@@H](O)CN2C(=O)[C@@H](NC(=O)CCCCCCCNC(=O)c2nc(N3CCCc4c3nnc(Nc3nc5ccccc5s3)c4C)ccc2-c2cnn(CC34CC5(C)CC(C)(C3)CC(OCCN3CCCC3)(C5)C4)c2C)C(C)(C)C)cc1` [Example 129, 6-[3-(1,3-benzothiazol-2-ylamino)-4-methyl-6,7-dihydro-5H-pyrido[2,3-c]pyridazin-8-yl]-3-[1-[[3,5-dimethyl-7-(2-pyrrolidin-1-ylethoxy)-1-adamantyl]methyl]-5-methyl-pyrazol-4-yl]-N-[8-[[(1S)-1-[(2S,4R)-4-hydroxy-2-[[(1S)-1-[4-(4-methylthiazol-5-yl)phenyl]ethyl]carbamoyl]pyrrolidine-1-carbonyl]-2,2-dimethyl-propyl]amino]-8-oxo-octyl]pyridine-2-carboxamide], the DC50 at HiBiT-tagged BCL-xL was found to be 1 nM; at Bcl-xL it was 7.34 nM. This compound came in with an IC50 with MOLT-4 cells of 5.3 nM. Also, in assay [1], the GI50 was 3 nM.
On to `Cc1ncsc1-c1ccc(CNC(=O)[C@@H]2C[C@@H](O)CN2C(=O)[C@@H](NC(=O)C2(F)CC2)C(C)(C)SCCCCCCCCCCN(C)CCOC23CC4(C)CC(C)(CC(Cn5ncc(-c6ccc(N7CCCc8c7nnc(Nc7nc9ccccc9s7)c8C)nc6C(=O)O)c5C)(C4)C2)C3)cc1` [Example 94, 6-[3-(1,3-benzothiazol-2-ylamino)-4-methyl-6,7-dihydro-5H-pyrido[2,3-c]pyridazin-8-yl]-3-[1-[[3-[2-[10-[(2R)-2-[(1-fluorocyclopropanecarbonyl)amino]-3-[(2S,4R)-4-hydroxy-2-[[4-(4-methylthiazol-5-yl)phenyl]methylcarbamoyl]pyrrolidin-1-yl]-1,1-dimethyl-3-oxo-propyl]sulfanyldecyl-methyl-amino]ethoxy]-5,7-dimethyl-1-adamantyl]methyl]-5-methyl-pyrazol-4-yl]pyridine-2-carboxylic acid], for which the results for the DC50 at HiBiT-tagged BCL-xL and at Bcl-xL were > 1670 nM and 1.06 nM, respectively. Moreover, in the assay on MOLT-4 cells, the half-maximal inhibitory concentration (IC50) came to 14.4 nM. Besides, the concentration for 50% growth inhibition (GI50) in assay [1] is 112 nM.
With `Cc1cc(N(CCCCN(C)C(=O)CCCCCCCCCOc2cccc3c2C(=O)N(C2CCC(=O)NC2=O)C3=O)c2ccc(-c3cnn(CC45CC6(C)CC(C)(C4)CC(OCCN(C)C)(C6)C5)c3C)c(C(=O)O)n2)nnc1Nc1nc2ccccc2s1` (stereo not drawn) [Example 95, 6-[[6-(1,3-benzothiazol-2-ylamino)-5-methyl-pyridazin-3-yl]-[4-[10-[2-(2,6-dioxo-3-piperidyl)-1,3-dioxo-isoindolin-4-yl]oxydecanoyl-methyl-amino]butyl]amino]-3-[1-[[3-[2-(dimethylamino)ethoxy]-5,7-dimethyl-1-adamantyl]methyl]-5-methyl-pyrazol-4-yl]pyridine-2-carboxylic acid], the results for the DC50 at HiBiT-tagged BCL-xL and on Bcl-xL were > 1670 nM and 2.85 nM, respectively. This compound also showed an IC50 in the assay on MOLT-4 cells of 5.77 nM. Further, the GI50 in assay [1] was found to be 2660 nM.
As for `Cc1cc(N(CCCCN(C)C(=O)CCCCCCCCCCC(=O)N[C@H](C(=O)N2C[C@H](O)C[C@H]2C(=O)N[C@@H](C)c2ccc(-c3scnc3C)cc2)C(C)(C)C)c2ccc(-c3cnn(CC45CC6(C)CC(C)(C4)CC(OCCN(C)C)(C6)C5)c3C)c(C(=O)N(C)C)n2)nnc1Nc1nc2ccccc2s1` [Example 128, N′-[4-[[6-(1,3-benzothiazol-2-ylamino)-5-methyl-pyridazin-3-yl]-[5-[1-[[3-[2-(dimethylamino)ethoxy]-5,7-dimethyl-1-adamantyl]methyl]-5-methyl-pyrazol-4-yl]-6-(dimethylcarbamoyl)-2-pyridyl]amino]butyl]-N-[(1S)-1-[(2S,4R)-4-hydroxy-2-[[(1S)-1-[4-(4-methylthiazol-5-yl)phenyl]ethyl]carbamoyl]pyrrolidine-1-carbonyl]-2,2-dimethyl-propyl]-N′-methyl-dodecanediamide], on HiBiT-tagged BCL-xL, the DC50 stood at 18 nM. In the assay with MOLT-4 cells, this compound came in with a half-maximal inhibitory concentration (IC50) of 67 nM. For the same compound, the concentration for 50% growth inhibition (GI50) in assay [1] came to 869 nM.
As for `Cc1ncsc1-c1ccc([C@H](C)NC(=O)[C@@H]2C[C@@H](O)CN2C(=O)[C@@H](NC(=O)C2CCN(C(=O)CCCCCCCCCCCN(C)CCOC34CC5(C)CC(C)(CC(Cn6ncc(-c7ccc(N8CCCc9c8nnc(Nc8nc%10ccccc%10s8)c9C)nc7C(=O)O)c6C)(C5)C3)C4)CC2)C(C)(C)C)cc1` [Example 86, 6-[3-(1,3-benzothiazol-2-ylamino)-4-methyl-6,7-dihydro-5H-pyrido[2,3-c]pyridazin-8-yl]-3-[1-[[3-[2-[[12-[4-[[(1S)-1-[(2S,4R)-4-hydroxy-2-[[(1S)-1-[4-(4-methylthiazol-5-yl)phenyl]ethyl]carbamoyl]pyrrolidine-1-carbonyl]-2,2-dimethyl-propyl]carbamoyl]-1-piperidyl]-12-oxo-dodecyl]-methyl-amino]ethoxy]-5,7-dimethyl-1-adamantyl]methyl]-5-methyl-pyrazol-4-yl]pyridine-2-carboxylic acid], the DC50 at HiBiT-tagged BCL-xL is > 1670 nM. In the assay with MOLT-4 cells, this compound yielded a 50% inhibitory concentration (IC50) of 13.7 nM. The GI50 in assay [1] came out at 18 nM.
